Reference: the kinase profiling compilation of Christmann-Franck et al. (2016)

Assays:
Assay in all cases: radiometric filter-binding kinase assay, Kinase HotSpot
Conditions in all cases: compound 0.5 µM; ATP 10 µM
[1] = molecular target: ACVR1B (human) (UniProt P36896)
[2] = molecular target: AURKB (human) (UniProt Q96GD4)
[3] = molecular target: CAMK1 (human) (UniProt Q14012)
[4] = molecular target: CHEK1 (human) (UniProt O14757)
[5] = molecular target: CLK2 (human) (UniProt P49760)
[6] = molecular target: DAPK2 (human) (UniProt Q9UIK4)
[7] = molecular target: EPHA3 (human) (UniProt P29320)
[8] = molecular target: EPHB3 (human) (UniProt P54753)
[9] = molecular target: ERBB2 (human) (UniProt P04626)
[10] = molecular target: FGFR1 (human) (UniProt P11362)
[11] = molecular target: GSK3B (human) (UniProt P49841)
[12] = molecular target: IKBKE (human) (UniProt Q14164)
[13] = molecular target: IRAK1 (human) (UniProt P51617)
[14] = molecular target: MAPK10 (human) (UniProt P53779)
[15] = molecular target: MAPK11 (human) (UniProt Q15759)
MAPK11 (human), sequence (Q15759 whole entry, looked up): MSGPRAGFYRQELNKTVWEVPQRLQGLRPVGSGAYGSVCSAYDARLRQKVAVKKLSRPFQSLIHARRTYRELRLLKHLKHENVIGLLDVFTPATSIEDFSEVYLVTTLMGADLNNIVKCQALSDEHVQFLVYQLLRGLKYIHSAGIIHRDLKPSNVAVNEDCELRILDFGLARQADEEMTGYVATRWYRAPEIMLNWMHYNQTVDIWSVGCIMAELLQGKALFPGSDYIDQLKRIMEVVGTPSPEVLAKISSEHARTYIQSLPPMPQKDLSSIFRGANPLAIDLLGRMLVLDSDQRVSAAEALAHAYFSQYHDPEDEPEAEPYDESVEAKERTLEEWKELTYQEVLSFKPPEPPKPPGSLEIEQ

[16] = molecular target: MAPKAPK5 (human) (UniProt Q8IW41)
MAPKAPK5 (human), sequence (Q8IW41 whole entry, looked up): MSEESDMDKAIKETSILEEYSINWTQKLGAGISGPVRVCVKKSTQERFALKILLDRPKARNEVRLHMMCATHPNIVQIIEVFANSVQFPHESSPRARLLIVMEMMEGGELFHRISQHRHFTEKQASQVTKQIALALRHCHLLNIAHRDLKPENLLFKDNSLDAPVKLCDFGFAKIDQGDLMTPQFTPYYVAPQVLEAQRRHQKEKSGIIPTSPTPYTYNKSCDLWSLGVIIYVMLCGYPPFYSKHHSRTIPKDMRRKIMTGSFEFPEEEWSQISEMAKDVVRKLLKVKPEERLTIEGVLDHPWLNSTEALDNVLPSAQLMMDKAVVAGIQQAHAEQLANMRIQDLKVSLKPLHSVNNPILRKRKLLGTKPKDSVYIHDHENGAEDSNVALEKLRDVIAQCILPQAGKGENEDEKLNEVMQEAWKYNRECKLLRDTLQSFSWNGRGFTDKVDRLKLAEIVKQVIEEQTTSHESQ

[17] = molecular target: MET (human) (UniProt P08581)
[18] = molecular target: MINK1 (human) (UniProt Q8N4C8)
[19] = molecular target: MKNK2 (human) (UniProt Q9HBH9)
[20] = molecular target: MLTK (human) (UniProt Q9NYL2)
MLTK (human), sequence (Q9NYL2 whole entry, looked up): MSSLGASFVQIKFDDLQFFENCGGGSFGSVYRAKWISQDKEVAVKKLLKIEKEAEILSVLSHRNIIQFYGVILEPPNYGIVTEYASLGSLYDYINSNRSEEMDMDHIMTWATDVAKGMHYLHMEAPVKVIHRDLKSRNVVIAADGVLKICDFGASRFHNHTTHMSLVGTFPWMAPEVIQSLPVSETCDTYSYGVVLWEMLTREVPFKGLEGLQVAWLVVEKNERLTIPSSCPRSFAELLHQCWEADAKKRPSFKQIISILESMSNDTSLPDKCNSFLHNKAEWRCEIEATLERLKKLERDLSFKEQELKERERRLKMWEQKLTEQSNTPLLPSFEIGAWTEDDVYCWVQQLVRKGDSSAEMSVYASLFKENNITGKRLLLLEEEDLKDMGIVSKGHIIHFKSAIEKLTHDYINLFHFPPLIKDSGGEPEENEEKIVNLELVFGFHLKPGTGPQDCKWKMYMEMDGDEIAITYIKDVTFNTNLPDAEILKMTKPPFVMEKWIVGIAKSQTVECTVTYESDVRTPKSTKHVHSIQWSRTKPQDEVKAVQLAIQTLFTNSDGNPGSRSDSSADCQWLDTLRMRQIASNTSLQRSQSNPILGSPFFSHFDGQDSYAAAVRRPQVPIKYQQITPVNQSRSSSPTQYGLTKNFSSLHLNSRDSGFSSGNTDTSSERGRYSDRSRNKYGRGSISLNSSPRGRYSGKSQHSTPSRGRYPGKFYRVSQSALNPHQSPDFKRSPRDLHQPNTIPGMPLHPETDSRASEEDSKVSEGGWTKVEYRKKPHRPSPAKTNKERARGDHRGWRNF

[21] = molecular target: MST4 (human) (UniProt Q9P289)
[22] = molecular target: MYLK (human) (UniProt Q15746)
[23] = molecular target: MYLK2 (human) (UniProt Q9H1R3)
[24] = molecular target: NEK1 (human) (UniProt Q96PY6)
[25] = molecular target: NEK7 (human) (UniProt Q8TDX7)
[26] = molecular target: PAK4 (human) (UniProt O96013)
[27] = molecular target: PHKG2 (human) (UniProt P15735)
PHKG2 (human), sequence (P15735 whole entry, looked up): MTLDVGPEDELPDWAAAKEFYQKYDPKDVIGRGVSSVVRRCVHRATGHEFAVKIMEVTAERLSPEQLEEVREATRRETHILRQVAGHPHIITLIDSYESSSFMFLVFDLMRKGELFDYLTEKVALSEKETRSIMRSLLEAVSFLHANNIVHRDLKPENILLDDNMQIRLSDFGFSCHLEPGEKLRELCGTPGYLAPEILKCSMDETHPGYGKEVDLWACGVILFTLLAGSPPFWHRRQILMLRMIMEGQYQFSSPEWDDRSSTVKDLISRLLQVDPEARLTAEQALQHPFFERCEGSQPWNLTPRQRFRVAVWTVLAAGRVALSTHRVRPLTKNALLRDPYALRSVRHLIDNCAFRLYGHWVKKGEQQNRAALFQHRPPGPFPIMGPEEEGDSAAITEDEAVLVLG

[28] = molecular target: PLK1 (human) (UniProt P53350)
PLK1 (human), sequence (P53350 whole entry, looked up): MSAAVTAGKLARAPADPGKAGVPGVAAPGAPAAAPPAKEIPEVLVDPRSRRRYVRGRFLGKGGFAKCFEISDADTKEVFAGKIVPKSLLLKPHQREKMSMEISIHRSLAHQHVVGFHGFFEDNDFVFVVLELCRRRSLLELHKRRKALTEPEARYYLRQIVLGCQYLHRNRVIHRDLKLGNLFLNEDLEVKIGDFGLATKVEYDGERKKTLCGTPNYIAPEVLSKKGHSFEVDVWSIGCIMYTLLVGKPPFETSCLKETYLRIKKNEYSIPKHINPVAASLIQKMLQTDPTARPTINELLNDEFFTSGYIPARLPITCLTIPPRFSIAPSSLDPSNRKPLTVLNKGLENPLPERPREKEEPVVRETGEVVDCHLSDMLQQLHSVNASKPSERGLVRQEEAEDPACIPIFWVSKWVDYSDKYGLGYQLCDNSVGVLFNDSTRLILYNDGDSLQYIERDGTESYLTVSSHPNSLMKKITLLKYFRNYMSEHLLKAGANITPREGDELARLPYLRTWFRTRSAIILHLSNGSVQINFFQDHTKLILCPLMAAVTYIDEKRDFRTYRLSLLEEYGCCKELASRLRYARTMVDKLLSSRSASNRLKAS

[29] = molecular target: PNCK (human) (UniProt Q6P2M8)
[30] = molecular target: PRKCB1 (human) (UniProt P05771)
[31] = molecular target: PRKCI (human) (UniProt P41743)
[32] = molecular target: PRKD2 (human) (UniProt Q9BZL6)
[33] = molecular target: RET (human) (UniProt P07949)
RET (human), sequence (P07949 whole entry, looked up): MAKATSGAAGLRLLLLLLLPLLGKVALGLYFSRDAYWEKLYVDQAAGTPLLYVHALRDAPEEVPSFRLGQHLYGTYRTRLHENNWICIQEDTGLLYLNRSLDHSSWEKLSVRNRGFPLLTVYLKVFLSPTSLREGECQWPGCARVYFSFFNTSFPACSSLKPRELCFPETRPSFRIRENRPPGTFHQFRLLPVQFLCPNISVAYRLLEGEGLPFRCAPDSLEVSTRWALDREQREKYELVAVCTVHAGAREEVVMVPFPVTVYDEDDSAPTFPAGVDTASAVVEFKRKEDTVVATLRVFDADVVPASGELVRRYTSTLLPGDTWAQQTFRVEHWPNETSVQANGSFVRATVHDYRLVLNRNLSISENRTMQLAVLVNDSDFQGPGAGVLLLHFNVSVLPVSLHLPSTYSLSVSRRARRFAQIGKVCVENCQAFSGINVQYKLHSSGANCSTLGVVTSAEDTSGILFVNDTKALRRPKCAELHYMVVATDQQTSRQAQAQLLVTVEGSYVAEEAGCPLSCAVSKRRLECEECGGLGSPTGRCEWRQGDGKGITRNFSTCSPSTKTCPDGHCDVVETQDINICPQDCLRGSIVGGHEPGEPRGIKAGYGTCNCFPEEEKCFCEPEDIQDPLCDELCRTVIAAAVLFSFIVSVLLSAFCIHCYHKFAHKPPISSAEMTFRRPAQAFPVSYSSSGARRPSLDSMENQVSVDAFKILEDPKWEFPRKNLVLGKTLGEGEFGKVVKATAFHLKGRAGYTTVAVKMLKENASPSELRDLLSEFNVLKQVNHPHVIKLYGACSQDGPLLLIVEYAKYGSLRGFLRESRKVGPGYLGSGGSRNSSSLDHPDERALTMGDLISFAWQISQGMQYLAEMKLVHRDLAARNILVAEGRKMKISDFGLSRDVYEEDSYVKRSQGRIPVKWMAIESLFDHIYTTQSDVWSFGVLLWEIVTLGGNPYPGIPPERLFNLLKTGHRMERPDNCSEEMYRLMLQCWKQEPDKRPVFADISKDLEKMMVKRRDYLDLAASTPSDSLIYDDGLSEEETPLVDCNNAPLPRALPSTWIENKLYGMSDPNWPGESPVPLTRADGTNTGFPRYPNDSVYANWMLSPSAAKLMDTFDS

[34] = molecular target: RPS6KA3 KD1 KD2 (human) (UniProt P51812)
[35] = molecular target: RPS6KA6 KD1 KD2 (human) (UniProt Q9UK32)
RPS6KA6 KD1 KD2 (human), sequence (Q9UK32 whole entry, looked up): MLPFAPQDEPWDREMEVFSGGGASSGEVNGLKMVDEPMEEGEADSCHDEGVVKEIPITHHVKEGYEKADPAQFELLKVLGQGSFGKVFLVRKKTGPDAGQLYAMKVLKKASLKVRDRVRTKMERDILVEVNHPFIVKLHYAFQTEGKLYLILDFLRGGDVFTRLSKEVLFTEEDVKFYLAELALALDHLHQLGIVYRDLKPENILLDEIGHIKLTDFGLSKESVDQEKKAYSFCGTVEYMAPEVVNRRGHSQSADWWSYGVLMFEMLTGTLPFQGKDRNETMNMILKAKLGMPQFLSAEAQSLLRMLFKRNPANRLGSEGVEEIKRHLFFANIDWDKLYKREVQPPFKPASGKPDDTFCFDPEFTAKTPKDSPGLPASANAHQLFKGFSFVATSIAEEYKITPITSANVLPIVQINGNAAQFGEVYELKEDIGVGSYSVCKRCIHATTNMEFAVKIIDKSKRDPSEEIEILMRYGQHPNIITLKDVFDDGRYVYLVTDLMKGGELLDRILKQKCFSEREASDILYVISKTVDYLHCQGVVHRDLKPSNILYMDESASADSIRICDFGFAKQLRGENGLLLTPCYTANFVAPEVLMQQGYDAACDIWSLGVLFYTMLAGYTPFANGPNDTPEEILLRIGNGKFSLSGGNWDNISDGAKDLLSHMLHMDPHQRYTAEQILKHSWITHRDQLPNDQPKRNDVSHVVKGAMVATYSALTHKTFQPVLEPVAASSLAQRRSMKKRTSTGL

[36] = molecular target: RPS6KB1 (human) (UniProt P23443)
[37] = molecular target: STK25 (human) (UniProt O00506)
[38] = molecular target: STK3 (human) (UniProt Q13188)
[39] = molecular target: TYRO3 (human) (UniProt Q06418)
[40] = molecular target: YES1 (human) (UniProt P07947)
[41] = molecular target: STK38 (human) (UniProt Q15208)
[42] = molecular target: ULK3 (human) (UniProt Q6PHR2)

CHEK1 (human), sequence (O14757 whole entry, looked up): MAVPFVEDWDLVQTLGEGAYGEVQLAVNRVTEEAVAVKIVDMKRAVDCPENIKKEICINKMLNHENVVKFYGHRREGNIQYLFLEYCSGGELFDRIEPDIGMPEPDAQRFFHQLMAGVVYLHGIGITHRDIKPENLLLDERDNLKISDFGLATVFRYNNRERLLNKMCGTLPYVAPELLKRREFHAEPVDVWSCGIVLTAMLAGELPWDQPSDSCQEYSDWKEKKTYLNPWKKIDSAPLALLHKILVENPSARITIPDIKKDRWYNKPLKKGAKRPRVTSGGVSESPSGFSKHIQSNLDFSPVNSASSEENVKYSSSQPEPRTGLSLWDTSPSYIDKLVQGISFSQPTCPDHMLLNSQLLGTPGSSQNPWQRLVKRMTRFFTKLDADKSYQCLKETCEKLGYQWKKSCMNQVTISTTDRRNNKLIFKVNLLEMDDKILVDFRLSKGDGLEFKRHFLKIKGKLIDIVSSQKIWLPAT

Row | Structure (SMILES) | residual activity [1] [%] | residual activity [2] [%] | residual activity [3] [%] | residual activity [4] [%] | residual activity [5] [%] | residual activity [6] [%] | residual activity [7] [%] | residual activity [8] [%] | residual activity [9] [%] | residual activity [12] [%] | residual activity [13] [%] | residual activity [15] [%] | residual activity [16] [%] | residual activity [18] [%] | residual activity [19] [%] | residual activity [20] [%] | residual activity [21] [%] | residual activity [22] [%] | residual activity [24] [%] | residual activity [25] [%] | further results
1 | O=C(Nc1cccc(Nc2nccc(Nc3cccc(C(F)(F)F)c3)n2)c1)C1CC1 | 110 | 72.8 | 95.5 | 96.6 | 87.6 | 120 | 105 | 100 | 93.8 | 97.5 | 96.4 | 103 | 91.9 | 108 | 91.3 | 110 | 84.4 | 90 | 82.8 | 116 | residual activity [10]: 99.6%; residual activity [11]: 101%; residual activity [14]: 99%; residual activity [17]: 87.7%; residual activity [23]: 93.6%; residual activity [26]: 87.4%; residual activity [27]: 107%; residual activity [28]: 91.7%; residual activity [29]: 106%; residual activity [30]: 94.7%; residual activity [31]: 91.3%; residual activity [32]: 101%; residual activity [33]: 88.6%; residual activity [34]: 100%; residual activity [35]: 89.5%; residual activity [36]: 98%; residual activity [37]: 98.1%; residual activity [38]: 96%; residual activity [39]: 93.8%; residual activity [40]: 78.9%
2 | Cc1ccc(Nc2nccc(N(C)c3ccc4c(C)n(C)nc4c3)n2)cc1S(N)(=O)=O | 100 | 64.6 | 87.4 | 110 | 90.9 | 93 | 94.1 | 71.7 | 103 | 87 | 97 | 93.3 | 100 | 73.7 | 107 | 96.9 | 108 | 93 | 105 | 101 | residual activity [26]: 92%; residual activity [27]: 96.7%; residual activity [28]: 99.5%; residual activity [29]: 95.9%; residual activity [30]: 91%; residual activity [31]: 96.1%; residual activity [32]: 90.8%; residual activity [33]: 25.7%; residual activity [34]: 99.1%; residual activity [35]: 96.8%; residual activity [36]: 96%; residual activity [37]: 97.3%; residual activity [38]: 95.4%; residual activity [41]: 100%; residual activity [39]: 92%; residual activity [42]: 102%; residual activity [40]: 52.6%
3 | CC#CC(=O)Nc1cc2c(Nc3ccc(F)c(Cl)c3)ncnc2cn1 | 104 | 101 | 97.9 | 106 | 100 | 105 | 99.8 | 85.4 | 2.36 | 98.9 | 104 | 96.2 | 96.3 | 91.9 | 66 | 85.8 | 103 | 98.8 | 105 | 98.2 | residual activity [10]: 91.1%; residual activity [11]: 93%; residual activity [14]: 85.4%; residual activity [17]: 96.3%; residual activity [23]: 99.9%; residual activity [26]: 107%; residual activity [27]: 99%; residual activity [28]: 99.3%; residual activity [29]: 99.4%; residual activity [30]: 97.4%; residual activity [31]: 96.6%; residual activity [32]: 97.6%; residual activity [33]: 84.3%; residual activity [34]: 97.5%; residual activity [35]: 95.3%; residual activity [36]: 97.1%; residual activity [37]: 97.1%; residual activity [38]: 106%; residual activity [39]: 100%; residual activity [40]: 82.3%
